In US20150296781A1, “ACRYLATE/METHACRYLATE-BASED TRIBLOCK COPOLYMER/ANTHRANILIC DIAMIDE COMPOSITIONS FOR PROPAGULE COATING” (priority 2013, published 2015):

System: 2nd instar larva of Spodoptera frugiperda
Assay: Laboratory test with 2nd instar larva of Spodoptera frugiperda on maize leaves
Format: in vivo

SMILES: CNC(=O)c1cc(Cl)cc(C)c1NC(=O)c1cc(Br)nn1-c1ncccc1Cl [Compound 2, 3-bromo-N-[4-chloro-2-methyl-6-[(methylamino)carbonyl]phenyl]-1-(3-chloro-2-pyridinyl)-1H-pyrazole-5-carboxamide]
- concentration per g of leaf tissue resulting in 50% mortality within 72 h: 0.033 micrograms per g of leaf tissu
- concentration per g of tissue needed to achieve 100% mortality within 72 h: 0.037 micrograms per g of tissue
